These results are taken from US12054497B2, “Substituted heterocyclic fused cyclic compound, preparation method therefor and pharmaceutical use thereof” (GENFLEET THERAPEUTICS (SHANGHAI) INC., priority 2019, dated 2024).

Holding throughout (assay type): cell-based, human
The subject of experiment [1] is NCI-H358 cells with Kras G12C mutation. The experiment is described as follows: Cell proliferation inhibition experiment, 3D spheroid, CellTiter-Glo (Test Example 1). Conditions: 5 days. As for the experimental part: (§1) NCI-H358 was a human NSCLC cell line with Kras G12C mutation, which was cultured in a RPMI-1640 medium with 10% fetal bovine serum (FBS). A549 was a human lung adenocarcinoma cell line with Kras G12S mutation, which was cultured in an F-12K medium with 10% FBS. Cells in logarithmic growth phase were detached with trypsin and EDTA, collected and counted, and H358 was regulated to 1.8E4 cells/ml by using an RPMI-1640 medium with 2% FBS, while A549 was regulated to 8.9E3 cells/ml with an F-12K medium containing 2% FBS. 800 (45 μl) H358 cells and 400 (45 μl) A549 cells were seeded to 384-well spheroid plates, respectively, and cultured overnight to establish 3D cell models. 1000× stock solutions of compounds at a concentration gradient of 3.16 were prepared by using DMSO, and diluted 100 times by the medium with 2% FBS into 10× stock solutions of compounds. On the day after cell seeding, 5 μl of 10× stock solution of a compound was added to each well of cell culture plate, with a final concentration being 1× and a DMSO content of 0.1%. DMSO was used as the control, and the medium with 2% FBS was used as blank control group. After 5 days of cell culture with the compound, 25 μl of CellTiter-Glo working solution was added to each well, and mixed uniformly at 400 rpm and incubation for 30 minutes. After standing at room temperature for 30 minutes, 40 μl of mixed solution was transferred to a 384-well plate with white clear bottom. A value of luminescence was then read, and a cell proliferation inhibition rate (IR) (%)=(RLU control-RLU compound)/(RLU control−RLU blank)×100%. The value of IC50 was calculated by fitting a gradiently diluted concentration of the compound and the corresponding cell proliferation inhibition rate using a Prism 6 four-parameter method.
On the technique in general: ATP-based viability assays read luminescence as a measure of living cells.

Experiment [2] relates to A549 cells with Kras G12S mutation. The experiment is described as above. Conditions: 5 days. As for the experimental part: as §1
In experiment [3] the test system is phosphorylated ERK in MIA PaCa2 cells with Kras G12C mutation. Briefly: p-ERK HTRF assay for cells (Test Example 2). The settings on record: MIA PaCa2 cells, 2 hours with compound, read-out: p-ERK IC50. As for the experimental part: MIA PaCa2 was a human pancreatic carcinoma cell line with Kras G12C mutation, which was cultured in a DMEM with 10% FBS and 2.5% Horse serum. Cells in logarithmic growth phase were detached with trypsin and EDTA, collected and counted, and 2.5E4 cells were seeded to a 96-well cell culture plate and cultured overnight. 1000× stock solutions of compounds at a concentration gradient of 3.16 were prepared by using DMSO, and diluted 200 times by the medium into 5× stock solutions of compounds. On the day after cell seeding, 5× stock solution of a compound was added to each well of cell culture plate, with a final concentration being 1× and a DMSO content of 0.1%. DMSO was used as the control. The residual culture was removed after culturing for 2 hours with the compound. To each well, 50 ul of cell lysis buffer was added and mixed uniformly and incubation for 30 minutes. Subsequently, 16 ul of mixed solution was transferred to a 96-well plate with white unclear bottom, and 16 ul of cell lysis buffer was added to the blank control group. After the completion of transfer, 4 ul of p-ERK HTRF antibody mixture was added to each well, and a value of fluorescence intensity was read after incubation for 4 hours. The inhibition rate (IR) of the compound was calculated by the following equation: IR (%)=(RLU control-RLU compound)/(RLU control−RLU blank)×100%. The value of IC50 was calculated by fitting a gradiently diluted concentration of the compound and the corresponding cell proliferation inhibition rate using a Prism 8 four-parameter method.
For orientation: Time-resolved FRET reads energy transfer from a long-lived donor to a nearby acceptor.

The subject of experiment [4] is MIA PaCa-2 cells with Kras G12C mutation. The experiment is described as follows: Cell proliferation inhibition experiment, 3D spheroid, CellTiter-Glo (Test Example 3). The settings on record: 5 days, read-out: MIA-PaCa2 IC50. As for the experimental part:
MIA PaCa-2 was a human pancreatic carcinoma cell line with Kras G12C mutation, which was cultured in a DMEM with 10% FBS and 2.5% Horse serum. A549 was a human lung adenocarcinoma cell line with Kras G12S mutation, which was cultured in an F-12K medium with 10% FBS. Cells in logarithmic growth phase were detached with trypsin and EDTA, collected and counted, and 200 MIA PaCa-2 cells and 400 A549 cells were seeded to 384-well spheroid plates, respectively, and cultured overnight to establish 3D cell models. 1000× stock solutions of compounds at a concentration gradient of 3.16 were prepared by using DMSO, and diluted 100 times by the medium into 10× stock solutions of compounds. On the day after cell seeding, 10× stock solution of a compound was added to each well of cell culture plate, with a final concentration being 1× and a DMSO content of 0.1%. DMSO was used as the control, and the medium was used as the blank. After 5 days of cell culture with the compound, 30 μl of CellTiter-Glo working solution was added to each well, and mixed uniformly and incubation for 30 minutes. After standing at room temperature for 30 minutes, 40 μl of mixed solution was transferred to a 384-well plate with white unclear bottom. A value of luminescence intensity was then read, and a cell proliferation inhibition rate (IR) (%)=(RLU control−RLU compound)/(RLU control−RLU blank)×100%. The value of IC50 was calculated by fitting a gradiently diluted concentration of the compound and the corresponding cell proliferation inhibition rate using an XLFit four-parameter method.

[5] abbreviates: Homo sapiens, MIA PaCa-2, 120 h.

Read-outs that look alike come from different tables or passages of the source.

By IC50 is commonly meant the concentration needed to halve the response being measured. For `C=CC(=O)N1C[C@@H]2C(=O)N(C)c3c(c4cc(F)c(-c5c(O)cccc5F)nc4n(-c4c(C(C)C)ncnc4C(C)C)c3=O)N2C[C@H]1C` [Compound Z40, (2R,4aR)-3-acryloyl-8-(4,6-diisopropylpyrimidin-5-yl)-11-fluoro-10-(2-fluoro-6-hydroxyphenyl)-2,6-dimethyl-2,3,4,4a,6,8-hexahydro-1H-pyrazino[1′,2′:4,5]pyrazino[2,3-c][1,8]naphthyridin-5,7-dione], the IC50 in experiment [1] (Homo sapiens, NCI-H358, 120 h) was 11 nM; in experiment [2] (Homo sapiens, A549, 120 h) it was over 30000 nM; in experiment [3] (Homo sapiens, MIA PaCa-2, 2 h), 78 nM; in experiment [4] (setting [5]), 12 nM.
As to `[2H]C([2H])([2H])N1C(=O)[C@H]2CN(C(=O)C=C)CCN2c2c1c(=O)n(-c1c(C(C)C)ncnc1C(C)C)c1c(F)c(-c3c(O)cccc3F)c(Cl)cc21` (atropisomer, axis not shown; (aR)) [Compound Z39-1, (4aR) -3-acryloyl-11-chloro-8-(4,6-diisopropylpyrimidin-5-yl)-9-fluoro-10-(2-fluoro-6-hydroxyphenyl)-6-(deuteromethyl-d3)-2,3,4,4a,6,8-hexahydro-1H-pyrazino[1′,2′,5]pyrazino[2,3-c]quinolin-5,7-dione], the IC50 in experiment [1] is 0.6 nM; in experiment [2], over 30000 nM; in experiment [3] (Homo sapiens, MIA PaCa-2, 2 h) it was 11 nM; in experiment [4] (setting [5]) it was 1 nM.
Consider `[2H]C([2H])([2H])N1C(=O)[C@H]2CN(C(=O)C=C)[C@H](C)CN2c2c1c(=O)n(-c1c(C(C)C)ncnc1C(C)C)c1nc(-c3c(O)cccc3F)c(F)cc21` [Compound Z44, (2R,4aR)-3-acryloyl-8-(4,6-diisopropylpyrimidin-5-yl)-11-fluoro-10-(2-fluoro-6-hydroxyphenyl)-2-methyl-6-(methyl-d3)-2,3,4,4a,6,8-hexahydro-1H-pyrazino[1′,2′:4,5]pyrazino[2,3-c][1,8]naphthyridin-5,7-dione], for which the IC50 in experiment [1] (Homo sapiens, NCI-H358, 120 h) was 11 nM; in experiment [2] (Homo sapiens, A549, 120 h), over 30000 nM; in experiment [3] (Homo sapiens, MIA PaCa-2, 2 h), 88 nM; in experiment [4] (setting [5]), 34 nM.
In the case of `C=CC(=O)N1C[C@@H]2COc3c(c4cc(F)c(-c5c(O)cccc5F)nc4n(-c4c(C)ccnc4C(C)C)c3=O)N2C[C@H]1C` [Compound Z3, (6aR,9R)-8-acryloyl-3-fluoro-2-(2-fluoro-6-hydroxyphenyl)-13-(2-isopropyl-4-methylpyridin-3-yl)-9-methyl-6,6a,7,8,9,10-hexahydropyrazino[1′,2′:4,5][1,4]oxopyrazino[3,2-c][1,8]naphthyridin-12(13H)-one], the IC50 is 16 nM in experiment [1] (Homo sapiens, NCI-H358, 120 h); over 10000 nM in experiment [2] (Homo sapiens, A549, 120 h); 160 nM in experiment [3] (Homo sapiens, MIA PaCa-2, 2 h); 18 nM in experiment [4] (setting [5]).
The like results for `C=CC(=O)N1CCN2c3c(c(=O)n(-c4c(C)ccnc4C(C)C)c4nc(-c5c(O)cccc5F)c(F)cc34)N(C)C(=O)CC2C1` (stereo not drawn) [Compound Z43, 3-acryloyl-12-fluoro-11-(2-fluoro-6-hydroxyphenyl)-9-(2-isopropyl-4-methylpyridin-3-yl)-7-methyl-1,2,3,4,4a,5,7,9-octahydropyrazino[1′,2′:4,5][1,4]diaza[2,3-c][1,8]naphthyridin-6,8-dione] were, in that order, 49 nM, 29200 nM, 439 nM and 220 nM.
With `C=CC(=O)N1C[C@@H]2C(=O)N(C)c3c(c4cc(F)c(-c5c(O)cccc5F)nc4n(-c4c(C)cc(C)nc4C(C)C)c3=O)N2C[C@H]1C` [Compound Z46], the IC50 in experiment [1] (Homo sapiens, NCI-H358, 120 h) was 12 nM; in experiment [2] (Homo sapiens, A549, 120 h), 10300 nM; in experiment [3] (Homo sapiens, MIA PaCa-2, 2 h), 224 nM; in experiment [4] (setting [5]), 68 nM.
The like results for `C=CC(=O)N1CCN2c3c(c(=O)n(-c4c(C)ccnc4C(C)C)c4nc(-c5c(O)cccc5F)c(F)cc34)NC(=O)CC2C1` (stereo not drawn) [Compound Z42, 3-acryloyl-12-fluoro-11-(2-fluoro-6-hydroxyphenyl)-9-(2-isopropyl-4-methylpyridin-3-yl)-1,2,3,4,4a,5,7,9-octahydropyrazino[1′,2′:4,5][1,4]diaza[2,3-c][1,8]naphthyridin-6,8-dione] were, in that order, 53 nM, over 30000 nM, 566 nM and 128 nM.
Taken in the same sequence, the figures for `C=CC(=O)N1C[C@@H]2C(=O)Nc3c(c4cc(F)c(-c5c(O)cccc5F)nc4n(-c4c(C(C)C)ncnc4C(C)C)c3=O)N2C[C@H]1C` [Compound Z45, (2R,4aR)-3-acryloyl-8-(4,6-diisopropylpyrimidin-5-yl)-11-fluoro-10-(2-fluoro-6-hydroxyphenyl)-2-methyl-2,3,4,4a,6,8-hexahydro-1H-pyrazino[1′,2′:4,5]pyrazino[2,3-c][1,8]naphthyridin-5,7-dione] were 13 nM, over 30000 nM, 122 nM and 48 nM.
Turning to `C=CC(=O)N1CC2C(=O)N(C)c3c(c4cc(F)c(-c5c(O)cccc5F)nc4n(-c4c(C(F)(F)F)ccnc4C(C)C)c3=O)N2C[C@H]1C` (single isomer, unassigned) [Compound Z49-1], the IC50 came out at 9 nM in experiment [1]; 9420 nM in experiment [2]; 114 nM in experiment [3] (Homo sapiens, MIA PaCa-2, 2 h); 12 nM in experiment [4] (setting [5]).
Turning to `C=CC(=O)N1CCN2c3c(c(=O)n(-c4c(C)ccnc4C(C)C)c4nc(-c5c(O)cccc5F)c(F)cc34)N(CC)C(=O)[C@H]2C1` (single isomer, unassigned) [Compound Z30-2], the IC50 in experiment [1] was 47 nM; in experiment [2], over 30000 nM; in experiment [3], 488 nM; in experiment [4], 130 nM.
For the molecule `C=CC(=O)N1CCN2c3c(c(=O)n(-c4c(C)ccnc4C(C)C)c4nc(-c5c(O)cccc5F)c(Cl)cc34)OC[C@H]2C1` [Compound Z6, (4aR)-3-acryloyl-11-chloro-10-(2-fluoro-6-hydroxyphenyl)-8-(2-isopropyl-4-methylpyridin-3-yl)-1,2,3,4,4a,5-hexahydropyrazino[1′,2′:4,5][1,4]oxazino[2,3-c][1,8]naphthyridin-7(8H)-one], the IC50 in experiment [1] (Homo sapiens, NCI-H358, 120 h) amounted to 35 nM; in experiment [2] (Homo sapiens, A549, 120 h), 11300 nM; in experiment [3] (Homo sapiens, MIA PaCa-2, 2 h) it was 313 nM; in experiment [4] (setting [5]) it was 85 nM.
As for `C=CC(=O)N1C[C@@H]2COc3c(c4cc(F)c(-c5c(F)cccc5OC)nc4n(-c4c(C)ccnc4C(C)C)c3=O)N2C[C@H]1C` [Compound Z3a, (2R,4aR)-3-acryloyl-11-fluoro-10-(2-fluoro-6-methoxyphenyl)-8-(2-isopropyl-4-methylpyridin-3-yl)-2-methyl-1,2,3,4,4a,5-hexahydropyrazino[1′,2′:4,5][1,4]oxopyrazino[2,3-c][1,8]naphthyridin-7(8H)-one], the IC50 in experiment [1] (Homo sapiens, NCI-H358, 120 h) was 17 nM; in experiment [2] (Homo sapiens, A549, 120 h) it was over 10000 nM; in experiment [3] (Homo sapiens, MIA PaCa-2, 2 h), 273 nM; in experiment [4] (setting [5]), 70 nM.
